# Test results: the supplement of paper PMC11061612
# Tests used:
# Assay in all cases: Bliss excess, mean over the matrix (fraction); higher = more synergy
# [1] = tested on: SHP-77 (Small Cell Lung Carcinoma)
# Summary of the method: (§1)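 Cell lines grown in DMEM/F12 or RPMI with 10% FBS were plated in 1536-well plates and held 24 hours at 37°C, 5% CO2 before 72 hours of exposure to two-drug dose matrices, with DMSO typically at 0.2%. CellTiter-Glo 2.0 luminescence gave viability, which was converted to inhibition. Vehicle wells were set to 0 and blank wells to 1. Combination Emax is the second-highest inhibition in the matrix, and Bliss excess is the observed combination effect minus the expected EA + EB − EA·EB, where EA and EB are the single-agent effects.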
# [2] = tested on: OVMIU (Ovarian Carcinoma)
# Summary of the method: as §1
# IST-MES1 (Mesothelioma) = tested on: IST-MES1 (Mesothelioma)
# Summary of the method: as §1
# [3] = tested on: RCM-1 (Colorectal Carcinoma)
# Summary of the method: as §1
# [4] = tested on: NCI-H2342 (Lung Adenocarcinoma)
# Summary of the method: as §1
# [5] = tested on: NCI-H23 (Lung Adenocarcinoma)
# Summary of the method: as §1
# [6] = tested on: MFE-280 (Endometrial Carcinoma)
# Summary of the method: as §1
# [7] = tested on: NCI-H446 (Small Cell Lung Carcinoma)
# Summary of the method: as §1
# [8] = tested on: MKN45 (Gastric Carcinoma)
# Summary of the method: as §1
# [9] = tested on: PANC-03-27 (Pancreatic Carcinoma)
# Summary of the method: as §1
# LN-229 (Glioblastoma) = tested on: LN-229 (Glioblastoma)
# Summary of the method: as §1
# [10] = tested on: SK-PN-DW (Other Solid Carcinomas)
# Summary of the method: as §1
# [11] = tested on: OPM-2 (Plasma Cell Myeloma)
# Summary of the method: as §1
# [12] = tested on: PC-3_[JPC-3] (Lung Adenocarcinoma)
# Summary of the method: as §1
# [13] = tested on: RERF-GC-1B (Gastric Carcinoma)
# Summary of the method: as §1
# [14] = tested on: OAW-42 (Ovarian Carcinoma)
# Summary of the method: as §1
# [15] = tested on: COLO-680N (Esophageal Squamous Cell Carcinoma)
# Summary of the method: as §1
# [16] = tested on: FADU (Head and Neck Carcinoma)
# Summary of the method: as §1
# [17] = tested on: HEC-1 (Endometrial Carcinoma)
# Summary of the method: as §1
# [18] = tested on: HCT-15 (Colorectal Carcinoma)
# Summary of the method: as §1
Structure (SMILES),Bliss excess [1],Bliss excess [2],Bliss excess (IST-MES1 (Mesothelioma)),Bliss excess [3],Bliss excess [4],Bliss excess [5],Bliss excess [6],Bliss excess [7],Bliss excess [8],Bliss excess [9],Bliss excess (LN-229 (Glioblastoma)),Bliss excess [10],Bliss excess [11],Bliss excess [12],Bliss excess [13],Bliss excess [14],Bliss excess [15],Bliss excess [16],Bliss excess [17],Bliss excess [18]
"CS(=O)(=O)CCNCc1ccc(-c2ccc3ncnc(Nc4ccc(OCc5cccc(F)c5)c(Cl)c4)c3c2)o1 [Lapatinib] + NC1(c2ccc(-c3nc4ccn5c(=O)[nH]nc5c4cc3-c3ccccc3)cc2)CCC1 [MK-2206] (first compound max 10 µM, 7x7, partner max 10 µM)",-0.0136,0.0659,0.0433,-0.0323,-0.0499,-0.0481,-0.006,-0.0173,-0.0466,-0.0064,-0.0959,0.1,0.0183,-0.0174,0.0194,-0.0089,0.0426,–,–,–
"CN(CCO)CC[C@H](CSc1ccccc1)Nc1ccc(S(=O)(=O)NC(=O)c2ccc(N3CCC([C@@H](O)c4ccccc4-c4ccc(Cl)cc4)CC3)cc2)cc1S(=O)(=O)C(F)(F)F [AZD4320] + Cn1cnc2c(F)c(Nc3ccc(Br)cc3Cl)c(C(=O)NOCCO)cc21 [Selumetinib] (first compound max 1 µM, 7x7, partner max 3 µM)",0.0429,-0.0595,0.0318,0.0333,–,0.0703,-0.0211,-0.0039,-0.0725,0.0406,0.0585,-0.0198,0.0683,0.0339,0.022,-0.0115,0.0047,0.183,-0.018,0.0267
"CC(=O)c1c(C)c2cnc(Nc3ccc(N4CCNCC4)cn3)nc2n(C2CCCC2)c1=O [Palbociclib] + CN(CC[C@H](CSC1=CC=CC=C1)NC2=C(C=C(C=C2)S(=O)(=O)NC(=O)C3=CC=C(C=C3)N4CCC(CC4)[C@H](C5=CC=CC=C5C6=CC=C(C=C6)Cl)O)S(=O)(=O)C(F)(F)F)CCO [AZD4320] (first compound max 10 µM, 7x7, partner max 1 µM)",–,–,–,–,–,-0.0367,–,-0.0065,–,–,-0.059,–,–,–,-0.0147,-0.0177,–,-0.137,-0.125,-0.0286
"Cc1c2c(nn1C)CSCc1cc(n(C)n1)CSc1cc(c3ccccc3c1)OCCCc1c(C(=O)O)n(C)c3c-2c(Cl)ccc13 [AZD5991] + Cc1cc2ncnn2cc1Nc1ncc2c(n1)n(C1CCOCC1)c(=O)n2C [AZD7648] (first compound max 1 µM, 7x7, partner max 10 µM)",-0.0359,-0.091,-0.0122,-0.0149,-0.0535,-0.0431,–,0.0148,-0.0528,-0.0286,-0.0525,-0.0404,-0.0357,-0.0306,-0.0085,-0.0419,-0.0177,-0.0003,-0.0375,-0.0354
"Cc1c2c(nn1C)CSCc1cc(n(C)n1)CSc1cc(c3ccccc3c1)OCCCc1c(C(=O)O)n(C)c3c-2c(Cl)ccc13 [AZD5991] + CCN(CCO)CCCOc1ccc2c(Nc3cc(CC(=O)Nc4cccc(F)c4)[nH]n3)ncnc2c1 [AZD2811] (first compound max 1 µM, 7x7, partner max 1 µM)",-0.034,-0.099,-0.002,-0.0249,-0.0613,0.0222,0.053,–,-0.0123,0.0566,0.0043,0.0869,0.0578,-0.0049,0.014,0.0173,0.007,0.132,0.0547,0.0432
"C[C@@H]1COCCN1c1cc(C2([S@](C)(=N)=O)CC2)nc(-c2ccnc3[nH]ccc23)n1 [AZD6738] + O=C(c1cc(Cc2n[nH]c(=O)c3ccccc23)ccc1F)N1CCN(C(=O)C2CC2)CC1 [Olaparib] (first compound max 10 µM, 7x7, partner max 10 µM)",0.0804,-0.0083,0.0228,-0.101,-0.0089,0.0049,0.0368,0.0602,-0.0683,0.0141,-0.0713,0.008,-0.0339,0.0112,-0.0439,–,0.0109,0.0098,-0.0041,0.0151
"COc1cccc(OCCCN)c1-c1cc(Nc2cnc(C#N)cn2)n[nH]1 [Prexasertib] + O=C(c1cc(Cc2n[nH]c(=O)c3ccccc23)ccc1F)N1CCN(C(=O)C2CC2)CC1 [Olaparib] (first compound max 1 µM, 7x7, partner max 10 µM)",-0.0791,-0.0938,-0.0105,-0.196,-0.0509,-0.0675,-0.0223,0.003,-0.044,-0.0102,-0.181,-0.0689,-0.0628,-0.0525,-0.0275,–,-0.0652,0.0354,-0.0535,-0.0077
"CN(CCO)CC[C@H](CSc1ccccc1)Nc1ccc(S(=O)(=O)NC(=O)c2ccc(N3CCC([C@@H](O)c4ccccc4-c4ccc(Cl)cc4)CC3)cc2)cc1S(=O)(=O)C(F)(F)F [AZD4320] + C=CCn1c(=O)c2cnc(Nc3ccc(N4CCN(C)CC4)cc3)nc2n1-c1cccc(C(C)(C)O)n1 [AZD1775] (first compound max 1 µM, partner max 1 µM)",0.0877,0.0324,-0.0274,-0.0586,0,0.0364,0.0823,0.0462,–,0.0079,0.0438,0.0052,0.0457,-0.0114,0.0515,0.0074,0.0065,0.0213,0.0194,-0.054
"Cc1c2c(nn1C)CSCc1cc(n(C)n1)CSc1cc(c3ccccc3c1)OCCCc1c(C(=O)O)n(C)c3c-2c(Cl)ccc13 [AZD5991] + C[C@@H]1COCCN1C2=NC(=NC(=C2)C3(CC3)[S@](=N)(=O)C)C4=C5C=CNC5=NC=C4 [AZD6738] (first compound max 1 µM, 7x7, partner max 10 µM)",-0.0048,-0.0037,–,-0.0371,0.0291,-0.0037,0.0388,0.0708,-0.0812,0.0059,0.0344,-0.0175,0.0291,0.0547,–,0.0046,0.0186,0.0284,0.0258,0.0431
"COc1cccc(OCCCN)c1-c1cc(Nc2cnc(C#N)cn2)n[nH]1 [Prexasertib] + CN(C)CCCOc1ccc(-c2ccc3ncc4c(c3c2)n(C2CCOCC2)c(=O)n4C)cn1 [AZD0156] (first compound max 1 µM, 7x7, partner max 1 µM)",0.0107,-0.0012,-0.0211,-0.0358,-0.0272,-0.0245,-0.0219,-0.0009,-0.0645,-0.0704,-0.035,-0.0141,0.0204,-0.0526,0.0049,–,-0.0393,-0.0256,-0.0146,0.0607
"C=CCn1c(=O)c2cnc(Nc3ccc(N4CCN(C)CC4)cc3)nc2n1-c1cccc(C(C)(C)O)n1 [AZD1775] + C[C@@H]1COCCN1C2=NC(=NC(=C2)C3(CC3)[S@](=N)(=O)C)C4=C5C=CNC5=NC=C4 [AZD6738] (first compound max 1 µM, partner max 10 µM)",0.0598,-0.0635,-0.025,0.0014,-0.0687,0.0238,0.0536,0.0581,-0.0711,-0.0426,-0.0069,0.0186,0.0437,-0.0732,0.0634,–,0.0196,0.0676,0.0694,0.0483
"C[C@@H](c1ccc2nccn2c1)n1nnc2ncc(-c3cnn(C)c3)nc21 [Savolitinib] + CN(CC[C@H](CSC1=CC=CC=C1)NC2=C(C=C(C=C2)S(=O)(=O)NC(=O)C3=CC=C(C=C3)N4CCC(CC4)[C@H](C5=CC=CC=C5C6=CC=C(C=C6)Cl)O)S(=O)(=O)C(F)(F)F)CCO [AZD4320] (first compound max 1 µM, 7x7, partner max 1 µM)",–,–,–,–,–,0.0248,–,0.112,–,–,-0.0833,–,–,–,-0.0404,-0.0451,–,-0.0378,-0.027,-0.0274
"Cc1cc2ncnn2cc1Nc1ncc2c(n1)n(C1CCOCC1)c(=O)n2C [AZD7648] + O=C(c1cc(Cc2n[nH]c(=O)c3ccccc23)ccc1F)N1CCN(C(=O)C2CC2)CC1 [Olaparib] (first compound max 10 µM, 7x7, partner max 10 µM)",-0.0585,-0.0945,-0.0592,-0.0789,-0.0548,-0.0059,-0.0011,-0.0388,-0.0106,-0.0149,-0.0816,0.0223,-0.0373,-0.0148,-0.076,–,-0.0435,0.0107,0.0079,0.0666
"COc1cc2c(cc1OCCCCCOc1cc3c(cc1OC)C(=O)N1C=C(C)C[C@H]1C=N3)N=C[C@@H]1CC(C)=CN1C2=O [SG3199] + O=C(c1cc(Cc2n[nH]c(=O)c3ccccc23)ccc1F)N1CCN(C(=O)C2CC2)CC1 [Olaparib] (first compound max 0.001 µM, 7x7, partner max 10 µM)",-0.0137,-0.0898,-0.0402,-0.0371,-0.0569,0.0008,-0.0092,-0.0372,-0.0633,-0.062,-0.0454,-0.0295,-0.047,-0.0368,0.0263,–,-0.043,-0.0009,0.0483,0.0701
"Cc1cc2ncnn2cc1Nc1ncc2c(n1)n(C1CCOCC1)c(=O)n2C [AZD7648] + CN(C)CCCOc1ccc(-c2ccc3ncc4c(c3c2)n(C2CCOCC2)c(=O)n4C)cn1 [AZD0156] (first compound max 10 µM, 7x7, partner max 1 µM)",-0.0017,-0.0068,-0.0353,-0.0041,-0.0237,-0.0031,0.0058,0.0418,-0.0268,0.0421,-0.0161,0.0349,-0.0303,-0.0019,-0.0141,–,-0.0078,-0.0048,-0.0239,-0.019
